In one series the target is T1, α4β1 integrin (Homo sapiens, UniProt P05556+P13612).
T1 construct: Jurkat cells endogenously express α4β1 integrin; host or cells: Jurkat E6.1 cells
Description: Jurkat cell adhesion assay on VCAM-1-coated wells. The class given is cell-based. The following applies: Jurkat cell adhesion to VCAM-1 (2 μg/mL); means ± SD, n = 3; tested 0.1 nM to 100 μM; read-out: EC50/IC50 (IC50 for compounds reducing cell adhesion). The method, then: To investigate the ability of the newly synthesized cyclopeptidomimetics 12–18 to recognize and bind α4β1 integrin, cell adhesion assays were performed on VCAM-1. The compounds were evaluated for their ability to interfere with α4β1 integrin-mediated cell adhesion by using Jurkat cells, which are known to constitutively express this integrin [46, 48, 49, 50, 51].
Jurkat E6.1 cells were purchased from American Type Culture Collection (ATCC, Rockville, MD, USA) and were routinely cultured in RPMI-1640 (LifeTechnologies, Milan, Italy) supplemented with 10% FBS (fetal bovine serum, Life Technologies) and 2 mM glutamine. Cells were kept at 37 °C under 5% CO2 humidified atmosphere. Jurkat cells are a widely used cell model to study potential agonist or antagonist ligands able to modulate integrin-mediated cell adhesion. Jurkat cells endogenously express α4β1 integrin [13].
The assays were performed as previously described. In brief, black 96 well plates were coated with VCAM-1 (2 μg/mL) overnight at 4 °C; then, non-specific hydrophobic binding sites were blocked with 1% BSA (bovine serum albumin, Sigma-Aldrich) in HBSS (Life Technologies) for 30 min at 37 °C. Jurkat cells were labelled with CellTracker green CMFDA (12.5 μM, Life Technolgies) and pre-incubated with various concentration (10^−4–10^−10 M) of each new cyclopeptidomimetic or with the vehicle (DMSO) for 30 min at 37 °C. Afterwards, Jurkat cells were plated on VCAM-1-coated wells and incubated for 30 min at 37 °C. Then, wells were washed three times with 1% BSA in HBSS and Jurkat cells were lysed with 0.5% Triton X-100 in PBS for 30 min at 4 °C. Green fluorescence (Ex485 nm/Em 535 nm) was measured in an EnSpire Multimode Plate Reader (PerkinElmer, Waltham, MA, USA). Experiments were performed in quadruplicate and repeated at least three times. The number of adherent cells was determined by comparison with a standard curve made with a known concentration of labelled Jurkat cells. Data analysis and IC50/EC50 values were calculated using GraphPad Prism 6.0 (GraphPad Software, San Diego, CA, USA).
The number of adherent cells was determined as described above.

Series [1] is described as follows: head-to-tail lactamisation (amide bond) of side-chain-protected linear peptides; HATU (3 equiv)/HOAt (3 equiv)/2,4,6-collidine (3 equiv); linear peptide + collidine added dropwise to HATU/HOAt, 5 h, argon. The following applies: the molecule shown is the open-chain precursor, DCM/DMF 15:1, 25.0 °C.
For series [2] the following is noted: amide bond, HATU/HOAt/collidine, DCM/DMF 15:1, 25.0 °C.

IC50 and ring closure, isolated yield data for 20 compounds are collected here from PMC8512764, “New 4-Aminoproline-Based Small Molecule Cyclopeptidomimetics as Potential Modulators of α4β1 Integrin” (Molecules, 2021).

Read-outs that look alike come from different tables or passages of the source. *1 amine or outer side, *2 acyl side, *3 side chain or, on linkers, in order; H or OH if unused. Where a SMILES comes first, the peptide text is derived from it. Bridges are numbered along the chain shown (N, C = ends). [ ]: non-standard residue; d: D form. The star is where a group is joined. ξ: configuration not given here. ξPro(4ξ-NH2) = O=C(C1CC(N[*:3])CN1[*:1])[*:2]; X1 = O=C(Cc1ccc(N[*:1])cc1)[*:2]; NH(2-Me-phenyl) = Cc1ccccc1N*; CO = O=C([*:1])[*:2]

T1 sequence (P13612 34-1032): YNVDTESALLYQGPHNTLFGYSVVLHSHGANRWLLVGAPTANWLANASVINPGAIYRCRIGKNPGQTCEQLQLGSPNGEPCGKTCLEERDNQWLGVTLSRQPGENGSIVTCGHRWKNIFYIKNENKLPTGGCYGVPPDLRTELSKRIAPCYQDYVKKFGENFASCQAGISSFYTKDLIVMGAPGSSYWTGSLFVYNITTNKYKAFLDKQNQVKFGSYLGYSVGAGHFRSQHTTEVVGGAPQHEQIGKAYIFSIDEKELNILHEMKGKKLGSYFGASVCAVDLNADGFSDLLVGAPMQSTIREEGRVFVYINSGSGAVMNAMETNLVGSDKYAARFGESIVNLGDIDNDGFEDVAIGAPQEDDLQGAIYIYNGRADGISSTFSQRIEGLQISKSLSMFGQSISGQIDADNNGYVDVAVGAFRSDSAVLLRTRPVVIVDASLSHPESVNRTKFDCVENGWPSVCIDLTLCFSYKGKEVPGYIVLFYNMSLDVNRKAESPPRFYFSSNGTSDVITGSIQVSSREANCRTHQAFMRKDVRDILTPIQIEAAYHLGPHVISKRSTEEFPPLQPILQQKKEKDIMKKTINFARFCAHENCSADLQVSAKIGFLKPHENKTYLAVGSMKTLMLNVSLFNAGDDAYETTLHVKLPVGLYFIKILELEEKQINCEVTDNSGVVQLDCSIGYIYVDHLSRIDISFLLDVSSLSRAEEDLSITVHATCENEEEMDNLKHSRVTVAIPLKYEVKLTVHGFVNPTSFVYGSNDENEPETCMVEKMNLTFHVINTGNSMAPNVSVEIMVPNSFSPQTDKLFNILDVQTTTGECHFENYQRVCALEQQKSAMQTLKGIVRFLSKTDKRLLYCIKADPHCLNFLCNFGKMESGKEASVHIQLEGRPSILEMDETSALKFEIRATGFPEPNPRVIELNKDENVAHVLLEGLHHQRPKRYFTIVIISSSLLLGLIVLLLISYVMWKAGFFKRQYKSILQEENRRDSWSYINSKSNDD
T1 sequence (P05556 21-798): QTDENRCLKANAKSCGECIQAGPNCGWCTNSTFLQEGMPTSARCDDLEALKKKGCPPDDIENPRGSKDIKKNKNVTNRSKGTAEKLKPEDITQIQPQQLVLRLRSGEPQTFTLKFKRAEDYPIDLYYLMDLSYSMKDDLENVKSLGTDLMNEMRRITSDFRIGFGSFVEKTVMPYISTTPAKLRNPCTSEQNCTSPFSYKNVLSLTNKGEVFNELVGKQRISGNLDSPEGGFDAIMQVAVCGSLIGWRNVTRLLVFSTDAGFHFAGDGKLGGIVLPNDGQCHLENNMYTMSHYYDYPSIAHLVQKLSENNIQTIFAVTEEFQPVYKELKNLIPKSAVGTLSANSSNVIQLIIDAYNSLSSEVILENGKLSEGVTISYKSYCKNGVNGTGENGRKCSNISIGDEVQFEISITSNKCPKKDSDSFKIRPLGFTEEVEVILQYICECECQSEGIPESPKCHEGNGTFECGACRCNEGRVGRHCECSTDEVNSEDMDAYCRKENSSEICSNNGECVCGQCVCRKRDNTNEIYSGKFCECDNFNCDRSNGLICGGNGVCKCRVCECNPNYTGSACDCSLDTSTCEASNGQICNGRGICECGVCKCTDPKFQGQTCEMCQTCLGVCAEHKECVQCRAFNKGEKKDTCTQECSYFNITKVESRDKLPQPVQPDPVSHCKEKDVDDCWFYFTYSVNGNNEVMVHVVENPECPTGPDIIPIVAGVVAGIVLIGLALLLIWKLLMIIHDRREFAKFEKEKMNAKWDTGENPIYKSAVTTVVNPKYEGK

Turning to `Cc1ccccc1NC(=O)Nc1ccc(CC(=O)N2CC3CC2C(=O)NC(CC(C)C)C(=O)NC(CC(=O)O)C(=O)NC(C(C)C)C(=O)NCC(=O)N3)cc1` (stereo not drawn) [Compound 12, c[(MPUPA)Amp-Leu-Asp-Val-Gly]] ({NH(2-Me-phenyl)-CO}-[X1][ξPro(4ξ-NH2)]LDVG; lactam 2-C; configuration not given here), the IC50 on α4β1 integrin was more than 100 µM.
`Cc1ccccc1NC(=O)Nc1ccc(CC(=O)N2CC3CC2C(=O)NC(CC(C)C)C(=O)NC(CCC(=O)O)C(=O)NC(C(C)C)C(=O)NCC(=O)N3)cc1` (stereo not drawn) [Compound 13, c[(MPUPA)Amp-Leu-Glu-Val-Gly]] ({NH(2-Me-phenyl)-CO}-[X1][ξPro(4ξ-NH2)]LEVG; lactam 2-C; configuration not given here): at α4β1 integrin, the IC50 is more than 100 µM.
Take `Cc1ccccc1NC(=O)Nc1ccc(CC(=O)N2CC3CC2C(=O)NC(CC(C)C)C(=O)NC(CC(=O)O)C(=O)NC(C(C)C)C(=O)N3)cc1` (stereo not drawn) [Compound 14, c[(MPUPA)Amp-Leu-Asp-Val]] ({NH(2-Me-phenyl)-CO}-[X1][ξPro(4ξ-NH2)]LDV; lactam 2-C; configuration not given here): the IC50 on α4β1 integrin is more than 100 µM.
Turning to `Cc1ccccc1NC(=O)Nc1ccc(CC(=O)N2CC3CC2C(=O)NC(CC(C)C)C(=O)NC(CCC(=O)O)C(=O)NC(C(C)C)C(=O)N3)cc1` (stereo not drawn) [Compound 15, c[(MPUPA)Amp-Leu-Glu-Val]] ({NH(2-Me-phenyl)-CO}-[X1][ξPro(4ξ-NH2)]LEV; lactam 2-C; configuration not given here), the IC50 on α4β1 integrin was more than 100 µM.
On to `Cc1ccccc1NC(=O)Nc1ccc(CC(=O)N2CC3CC2C(=O)NC(C(C)C)C(=O)NC(CCC(=O)O)C(=O)NC(CC(C)C)C(=O)N3)cc1` (stereo not drawn) [Compound 17, c[(MPUPA)Amp-Val-Glu-Leu]] ({NH(2-Me-phenyl)-CO}-[X1][ξPro(4ξ-NH2)]VEL; lactam 2-C; configuration not given here), for which, on α4β1 integrin, the IC50 is more than 100 µM.
Still for that read-out and setting: with `Cc1ccccc1NC(=O)Nc1ccc(CC(=O)N2CC3CC2C(=O)NC(CCCNC(=N)N)C(=O)NCC(=O)NC(CC(=O)O)C(=O)N3)cc1` (stereo not drawn) [Compound 18, c[(MPUPA)Amp-Arg-Gly-Asp]] ({NH(2-Me-phenyl)-CO}-[X1][ξPro(4ξ-NH2)]RGD; lactam 2-C; configuration not given here) the figure was more than 100 µM.
With `Cc1ccccc1NC(=O)Nc1ccc(CC(=O)N2C[C@@H](NC(=O)[C@@H](N)CC(=O)OC(C)(C)C)C[C@H]2C(=O)N[C@@H](CCCNC(=N)NS(=O)(=O)c2c(C)c(C)c3c(c2C)CCC(C)(C)O3)C(=O)NCC(=O)O)cc1` [H-Asp(tBu)-Amp(MPUPA)-Arg(Pmc)-Gly-OH], the ring closure, isolated yield in series [1] (14-membered ring) is 43%.
In series [2] (from H-Asp(tBu)-Amp(MPUPA)-Arg(Pmc)-Gly-OH, 14-membered ring, 0.52 mM), `Cc1ccccc1NC(=O)Nc1ccc(CC(=O)N2C[C@@H]3C[C@H]2C(=O)N[C@@H](CCCNC(=N)NS(=O)(=O)c2c(C)c(C)c4c(c2C)CCC(C)(C)O4)C(=O)NCC(=O)N[C@@H](CC(=O)OC(C)(C)C)C(=O)N3)cc1` [H-Asp(tBu)-Amp(MPUPA)-Arg(Pmc)-Gly-OH] yielded a ring closure, isolated yield of 43%.
As for `Cc1ccccc1NC(=O)Nc1ccc(CC(=O)N2C[C@@H](NC(=O)[C@@H](N)CC(C)C)C[C@H]2C(=O)N[C@H](C(=O)N[C@@H](CC(=O)OC(C)(C)C)C(=O)O)C(C)C)cc1` [H-Leu-Amp(MPUPA)-Val-Asp(tBu)-OH], the ring closure, isolated yield in series [1] (14-membered ring) amounted to 73%.
`Cc1ccccc1NC(=O)Nc1ccc(CC(=O)N2C[C@@H]3C[C@H]2C(=O)N[C@@H](C(C)C)C(=O)N[C@@H](CC(=O)OC(C)(C)C)C(=O)N[C@@H](CC(C)C)C(=O)N3)cc1` [H-Leu-Amp(MPUPA)-Val-Asp(tBu)-OH] came in with a ring closure, isolated yield in series [2] (from H-Leu-Amp(MPUPA)-Val-Asp(tBu)-OH, 14-membered ring, 0.78 mM) of 73%.
Consider `Cc1ccccc1NC(=O)Nc1ccc(CC(=O)N2C[C@@H](NC(=O)[C@@H](N)CC(C)C)C[C@H]2C(=O)N[C@H](C(=O)N[C@@H](CCC(=O)OC(C)(C)C)C(=O)O)C(C)C)cc1` [H-Leu-Amp(MPUPA)-Val-Glu(tBu)-OH], for which the ring closure, isolated yield in series [1] (14-membered ring) came to 73%.
`Cc1ccccc1NC(=O)Nc1ccc(CC(=O)N2C[C@@H]3C[C@H]2C(=O)N[C@@H](C(C)C)C(=O)N[C@@H](CCC(=O)OC(C)(C)C)C(=O)N[C@@H](CC(C)C)C(=O)N3)cc1` [H-Leu-Amp(MPUPA)-Val-Glu(tBu)-OH] yielded a ring closure, isolated yield in series [2] (from H-Leu-Amp(MPUPA)-Val-Glu(tBu)-OH, 14-membered ring, 0.74 mM) of 73%.
With `Cc1ccccc1NC(=O)Nc1ccc(CC(=O)N2C[C@@H](NC(=O)[C@@H](N)C(C)C)C[C@H]2C(=O)N[C@@H](CC(C)C)C(=O)N[C@@H](CC(=O)OC(C)(C)C)C(=O)O)cc1` [H-Val-Amp(MPUPA)-Leu-Asp(tBu)-OH], in series [1] (14-membered ring), the ring closure, isolated yield came to 69%.
As for `Cc1ccccc1NC(=O)Nc1ccc(CC(=O)N2C[C@@H]3C[C@H]2C(=O)N[C@@H](CC(C)C)C(=O)N[C@@H](CC(=O)OC(C)(C)C)C(=O)N[C@@H](C(C)C)C(=O)N3)cc1` [H-Val-Amp(MPUPA)-Leu-Asp(tBu)-OH], the ring closure, isolated yield in series [2] (from H-Val-Amp(MPUPA)-Leu-Asp(tBu)-OH, 14-membered ring, 0.53 mM) is 69%.
For the compound `Cc1ccccc1NC(=O)Nc1ccc(CC(=O)N2C[C@@H](NC(=O)[C@@H](N)C(C)C)C[C@H]2C(=O)N[C@@H](CC(C)C)C(=O)N[C@@H](CCC(=O)OC(C)(C)C)C(=O)O)cc1` [H-Val-Amp(MPUPA)-Leu-Glu(tBu)-OH], the ring closure, isolated yield in series [1] (14-membered ring) stood at 65%.
Turning to `Cc1ccccc1NC(=O)Nc1ccc(CC(=O)N2C[C@@H]3C[C@H]2C(=O)N[C@@H](CC(C)C)C(=O)N[C@@H](CCC(=O)OC(C)(C)C)C(=O)N[C@@H](C(C)C)C(=O)N3)cc1` [H-Val-Amp(MPUPA)-Leu-Glu(tBu)-OH], the ring closure, isolated yield in series [2] (from H-Val-Amp(MPUPA)-Leu-Glu(tBu)-OH, 14-membered ring, 0.76 mM) stood at 65%.
On to `Cc1ccccc1NC(=O)Nc1ccc(CC(=O)N2C[C@@H](NC(=O)CNC(=O)[C@@H](N)C(C)C)C[C@H]2C(=O)N[C@@H](CC(C)C)C(=O)N[C@@H](CC(=O)OC(C)(C)C)C(=O)O)cc1` [H-Val-Gly-Amp(MPUPA)-Leu-Asp(tBu)-OH], for which, in series [1] (17-membered ring), the ring closure, isolated yield turned out to be 88%.
For the compound `Cc1ccccc1NC(=O)Nc1ccc(CC(=O)N2C[C@@H]3C[C@H]2C(=O)N[C@@H](CC(C)C)C(=O)N[C@@H](CC(=O)OC(C)(C)C)C(=O)N[C@@H](C(C)C)C(=O)NCC(=O)N3)cc1` [H-Val-Gly-Amp(MPUPA)-Leu-Asp(tBu)-OH], the ring closure, isolated yield in series [2] (from H-Val-Gly-Amp(MPUPA)-Leu-Asp(tBu)-OH, 17-membered ring, 0.47 mM) is 88%.
On to `Cc1ccccc1NC(=O)Nc1ccc(CC(=O)N2C[C@@H](NC(=O)CNC(=O)[C@@H](N)C(C)C)C[C@H]2C(=O)N[C@@H](CC(C)C)C(=O)N[C@@H](CCC(=O)OC(C)(C)C)C(=O)O)cc1` [H-Val-Gly-Amp(MPUPA)-Leu-Glu(tBu)-OH], for which the ring closure, isolated yield in series [1] (17-membered ring) worked out at 78%.
The compound `Cc1ccccc1NC(=O)Nc1ccc(CC(=O)N2C[C@@H]3C[C@H]2C(=O)N[C@@H](CC(C)C)C(=O)N[C@@H](CCC(=O)OC(C)(C)C)C(=O)N[C@@H](C(C)C)C(=O)NCC(=O)N3)cc1` [H-Val-Gly-Amp(MPUPA)-Leu-Glu(tBu)-OH] showed a ring closure, isolated yield in series [2] (from H-Val-Gly-Amp(MPUPA)-Leu-Glu(tBu)-OH, 17-membered ring, 0.48 mM) of 78%.
